Experimental data published in patent EP1101492A1, “NOVEL REMEDIES FOR ALLERGIC DISEASES” (FUJI YAKUHIN KOGYO KABUSHIKI KAISHA, priority 1998, dated 2000).

Tests used:
[1] = Body weight gain in mice; conditions: test compounds 60 mg/kg s.c., prednisolone 10 mg/kg i.p., once a day for 6 days (Days 0-5), average ± standard deviation; for Body Weight Gain, Observation Day 5: non-administered 0.50± 0.23; for Body Weight Gain, Observation Day 7: non-administered 0.80± 0.48; for Body Weight Gain, Observation Day 10: non-administered 1.07± 0.58
Protocol: Accordingly, for assessing the side-effect each of the following test compounds an action on body weight gains was examined.
Next the mice were measured for their body weight. Each body weight gain was calculated on Days 5, 7 and 10 post-administration based on the body weight just prior to administration.

[2] = test system: mouse experimental atopic dermatitis models; assay: Auricle edema in experimental atopic dermatitis model (anti-DNP IgE sensitization, DNFB elicitation); type: in vivo, Balb/c mice; conditions: for % Inhibition IPR: auricle edema 1 hour post-elicitation; for % Inhibition IPR / % Inhibition LPR / % Inhibition vLPR: test compounds 60 mg/kg s.c., prednisolone 10 mg/kg i.p.; for % Inhibition IPR / % Inhibition LPR: once a day, 24 & 2 hours prior to DNFB-elicitation, vs untreated group; for % Inhibition LPR: auricle edema Day 1 post-elicitation; for % Inhibition vLPR: auricle edema Day 7 post-elicitation
Protocol: Intravenous injection of an anti-2,4-dinitrophenol (DNP) antibody (anti-DNP Ab, monoclonal IgE Ab; its antibody titer was 1 : 512 to 1 : 1024 by a rat heterologous passive cutaneous anaphylaxis reaction using a Wister rat) into a tail vein of female Balb/c mice (7-week old, body weight: 17 to 20 g, purchased from JAPAN SLC, Inc.) at a dose of […] per animal raised passive sensitization. Twenty four hours post-sensitization, 0.1% 2,4-dinitrofluorobenzene (DNFB; Nacalai Tesque, Inc.) in ethanol was painted onto both sides of a pair of mouse auricles at a dose of 10µL per each side for elicitation.
Fresh unsensitized mice were painted with 0.1% DNFB in ethanol onto their ear in the same manner as aforementioned and served as a control group. Not only immediately prior to elicitation but also 1 hour, 5 hours, daily between Days 1 and 14, and on Day 16 post-elicitation, ear thickness was measured using a dial thickness gauge (Peacock Co.). Each degree of auricle edemas was calculated: Auricular Edema (µm)=(Ear Thickness Post-Elicitation, µm) - (Ear Thickness immediately prior to Elicitation, µm) [formula]
Balb/c mice were passively sensitized with anti-DNP IgE Ab in the same manner as in Example 1. Twenty four hours later, 0.1% DNFB in ethanol was painted onto both sides of a pair of mouse auricles at a dose of 10 µL per each side for elicitation.
Immediately prior to elicitation, 1 hour and on Day 1 post-elicitation, auricle thickness was measured in the same manner as in Example 1. Each therapeutic efficacy is recorded as a percent inhibition wherein the "auricle edema (untreated group)" is used as a control. Auricle Edema Inhibition (%) = [ 1 -(Auricle Edema (Treated Group))/(Auricle Edema (Untreated Group))] × 100 (%) [formula]
Immediately prior to elicitation, and on Day 7 post-elicitation, auricle thickness was similarly measured. Each therapeutic efficacy is recorded as a percent inhibition wherein the auricle edema in the untreated group is used as a control.
Immediately prior to elicitation, and on Day 7 post-elicitation, auricle thickness was similarly measured. Each therapeutic efficacy is recorded as a percent inhibition wherein the auricle edema (untreated group) is used as a control.
Immediately prior to elicitation, at 1 and 4 hours and on Days 1, 3 and 7 post-elicitation, auricle thickness was similarly measured. From each auricle edema (µm) based on the auricle thickness immediately prior to elicitation, especially a prophylactically therapeutic efficacy of the test compound was evaluated.
Immediately prior to elicitation, at 0.5, 1 and 4 hours and on Days 1, 3 and 7 post-elicitation, auricle thickness was similarly measured. Each amount of auricle edemas was calculated (average± standard deviation).

[3] = test system: IgE; assay: Serum IgE level in sensitized and DNFB-elicited mice (ELISA); type: in vivo, Balb/c mice; conditions: 100 µg/ear in ethanol painted twice a day, 1 hour pre-elicitation, 0.25, 4, 5 and 6 days post-elicitation; serum 7 days post-elicitation; average ± standard deviation; untreated 34.55 ± 8.89, healthy 11.79 ± 2.35
Text: Ethanol alone was also painted onto both sides of a mouse left auricle. […] Blood was also drawn from unsensitized healthy mice and untreated mice and treated to give serum samples. Seven days post-elicitation, blood samples were drawn by cardiac puncture using a syringe treated with heparin, and then centrifuged to give serum samples.
A dilution of polyclonal goat anti-mouse IgE antibody (Bethyl Laboratories, Inc.; 500-fold dilution) in 0.1 M sodium carbonate-sodium bicarbonate buffer (pH 9.6) was added to each well of a 96-well microtest plate (MaxiSorp, Nunc, Inc.) at a rate of 100 µL/well and the resultant microtest plates were allowed to stand at about 4°C overnight in a refrigerator. Each well was rinsed 3 times with phosphate buffer (pH 7.4) containing 0.05% Tween 20. Next, 0.1 M sodium carbonate-sodium bicarbonate buffer (pH 9.6) containing 1 % bovine serum albumin was added to each well at a rate of 100 µL/well. The resultant microtest plates were allowed to stand at room temperature for 1 hour and washed 3 times. Thereafter, 2-fold serial dilutions of mouse serum samples were poured into each well of microtest plates at 100 µL/well, which was subjected to an antigen-antibody reaction at 4°C for 2 hours. […] The resultant enzymatic reaction products were measured at 405 nm.

[4] = Body weight gain in sensitized mice; type: in vivo; conditions: test compound 50 µg/ear/dose, prednisolone 5 µg/ear/dose, in ethanol painted twice a day, Days 1, 4 and 7, vs solvent control (ethanol)
Protocol: Experimental atopic dermatitis model mice sensitized in the same manner as in Example 1 were examined for influence on body weight gains.
Each mouse was measured for its body weight not only immediately before the start in painting but also on Days 1, 4 and 7 after the start in painting. Each gain in body weight was calculated and considered to indicate an effect on body weight changes affected by said treatments.

[5] = test system: guinea pig experimental bronchial asthma models; assay: Experimental bronchial asthma model (ovalbumin inhalation): airway resistance and asthmatic death; conditions: prednisolone 10 mg/kg orally;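 note: female Std:Hartley guinea pigs sensitized by inhaling nebulized ovalbumin once daily for 8 consecutive days, 8 to 11 animals per group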
Protocol: Guinea pigs (female, Std:Hartley, 3 weeks old, 200 to 250 g) were individually housed in a plastic chamber (width, 200 mm; depth, 300 mm; height, 167 mm). Aqueous ovalbumin (10 mg/mL) was administered to the guinea pigs once a day for sensitization by 10 min. inhalation with a nebulizer (5B, Nippon Shoji K.K.: flow rate, 6 L/min.) at a dose of 10 mg/mL during 8 cosecutive days. On Day 7 after the final sensitization, the guinea pigs were housed in a plastic chamber and inhaled using a nebulizer with a solution of ovalbumin (10 mg/mL) in physiological saline for 1 min. for elicitation (Matsumoto, T., et al., The Journal of Pharmacology and Experimental Therapeutics, 269: 1236-1244, 1994). The number of animals employed in the experiment was set to the extent there are at least 6 as individuals escaping asthmatic death. A solution of a test compound (Compound No. 130, 15 mg/kg) in water for injection was administered subcutaneously twice, i.e., 24 hours and 2 hours prior to elicitation. Similarly, the solvent alone was also administered to a negative control group. A suspension of prednisolone (10 mg/kg) in 0.5% aqueous methyl cellulose was administered orally twice, i.e., 24 hours and 2 hours prior to elicitation. Similarly, the solvent alone was also administered to another control group.
The evaluation for efficacies was conducted in terms of airway resistance. For this purpose, an apparatus dedicated to the measurement of airway resistance (K.K. Medical Agent) was employed. Measurement includes setting a guinea pig in a test chamber under a not-anesthetized condition, applying sinusoidal pressure waves of 30 Hz components to a part below the neck of the animal from the back side of the chamber, measuring respiratory waves of 30 Hz components leaking through the mouth (volume of 30 Hz air flow passing through the respiratory tract) in front of the neck, and calculating airway resistance mechanically. Measurement was carried out immediately prior to the first drug treatment (24 hours before elicitation), just prior to elicitation, 10 minutes, 1, 2, 4, 6, and 8 hours post-elicitation.
It was visually observed by a person carrying out said test in terms, of the appearance of cyanosis or suffocative death (asthmatic death) due to respiratory obstruction.
Guinea pigs were sensitized with ovalbumin and asthma was induced on Day 7 after final sensitization in the same manner as in Example 20. The number of animals employed in the experiment was set to the extent there are at least 6 as individuals escaping asthmatic death (8 to 11 animals/group). In the same manner as in Example 20, the animals were measured for airway resistance mechanically and each percent change (%) in airway resistance was calculated (each value just prior to elicitation was set as 100%). Each percent amelioration in airway resistance was calculated from the percent changes in airway resistance according to the following formula: Amelioration in Airway Resistance (%) = 1 -[((Percent Change in Airway Resistance after Drug-Administration) - (Value just prior to Challenge (100)))/((Percent Change in Airway Resistance after Solvent-Administration) - (Value just prior to Challenge (100)))]× 100 [formula]

[6] = daily from 3 to 6 days after DNFB-elicitation
[7] = daily from 1 day prior to through 5 days after DNFB-elicitation
[8] = asthmatic death due to cyanosis within several minutes after elicitation, Compound No. 130 15 mg/kg s.c., 24 and 2 hours prior to elicitation
[9] = test compounds 15 mg/kg s.c. (Compound No. 114: 30 mg/kg), 24 and 2 hours prior to elicitation, vs solvent control

Structure (SMILES) | Body Weight Gain, Observation Day 5 [1] | Body Weight Gain, Observation Day 7 [1] | Body Weight Gain, Observation Day 10 [1] | inhibitory efficacy on IgE-mediated auricle edema (FIG. 8) ([2]; 150 mg/kg orally once a day, compared to solvent control group, IPR 1 hour, LPR 1 day, vLPR 7 days) | % Inhibition IPR [2] | % Inhibition LPR [2] | % Inhibition vLPR [2, 6] | % Inhibition vLPR [2, 7] | Serum IgE Level [3] | gain in body weight (FIG. 10) [4] | % Mortality [5, 8] | (Dead Animals)/(Tested Animals) [5, 8] | % Survival ([5]; asthmatic death within several minutes after elicitation, test compounds 15 mg/kg s.c. (Compound No. 114: 30 mg/kg), water for injection 54.5, 0.5% methyl cellulose 66.7) | % Amelioration in Airway Resistance, 1 Hour after Elicitation [5, 9] | % Amelioration in Airway Resistance, 6 Hours after Elicitation [5, 9] | % Amelioration in Airway Resistance, Immediately after Elicitation [5, 9]
CC(=N)NCCCC[C@H](NC(=O)[C@H](CC(C)C)C(CCCc1ccccc1)C(=O)NO)C(=O)NCCN(C)C.CC(=O)O.CC(=O)O (mixture of isomers) [Compound No. 44, N^a-[4-(Hydroxyamino)-2(R)-isobutyl-3(RS)-(3-phenylpropyl)succinyl]-N^e-acetimidoyl-L-lysine N-(2-N',N'-dimethylaminoethyl)amide · 2 acetate] | 0.80± 0.30 | 1.08± 0.57 | 1.23± 0.56 | not only an inhibitory activity on the development of edemas in both IPR and LPR but also a remarkably strong inhibitory activity in vLPR | 43.9% | 43.6% | 65.6% | 22.0% | 26.70 ± 10.88 ng/mL | – | – | – | – | – | – | –
C[C@]12C=CC(=O)C=C1CC[C@@H]1[C@@H]2[C@@H](O)C[C@@]2(C)[C@H]1CC[C@]2(O)C(=O)CO [Prednisolone, reference compound] | 0.00± 0.26 | 0.03± 0.57 | 0.97± 0.47 | – | 36.8% | 29.9% | 24.8% | 24.8% | – | below that in the solvent control group | 22.2% | 2/9 | 75.0% | 23.6% | 14.8% | 11.5%
